Key:
[1] = test system: rat; details: Multigenerational reproductive toxicity study, wistar, Oral, Feed, dose end: 2 generation
[2] = test system: mouse; details: Subchronic oral toxicity in rodents, cd1, Feed, dose end: 8 week
[3] = test system: dog; details: Subchronic oral toxicity in nonrodent, beagle, Feed, dose end: 6 month, group: cholinesterase, cholinesterase / cholinesterase / cholinesterase / erythrocyte cholinesterase (che) + cholinesterase / cholinesterase / cholinesterase / …
[4] = test system: mouse; details: Combined chronic toxicity/carcinogenicity, cd1, Oral, Feed, dose end: 91 week
[5] = test system: rat; details: Combined chronic toxicity/carcinogenicity, sprague dawley, Oral, Feed, dose end: 24 month
[6] = test system: dog; details: Chronic toxicity, beagle, Oral, Feed, dose end: 52 week
[7] = test system: rat; details: Subchronic oral toxicity in rodents, fischer, Feed, dose end: 13 week, group: systemic
[8] = test system: rat; details: Subchronic oral toxicity in rodents, fischer, Feed, dose end: 13 week, group: systemic; remark: listed apart in the source
[9] = test system: mouse; details: Subchronic oral toxicity in rodents, b6c3f1, Feed, dose end: 13 week, group: systemic
[10] = test system: mouse; details: Multigenerational reproductive toxicity study, cd1, Oral, Feed, dose end: 1 generation
[11] = test system: rat; details: Carcinogenicity, sprague dawley, Oral, Gavage/Intubation, dose end: 105 week, group: systemic
[12] = test system: rabbit; details: Subchronic dermal toxicity, new zealand white, Topical, dose end: 13 week, group: systemic, systemic / in life observation / clinical signs / desquamation + systemic / in life observation / clinical signs / erythema + systemic / in …
[13] = group: cholinesterase, cholinesterase / cholinesterase / cholinesterase / cholinesterase (che)
[14] = group: cholinesterase, cholinesterase / cholinesterase / cholinesterase / cholinesterase (che) + cholinesterase / cholinesterase / cholinesterase / brain …
[15] = group: offspring, developmental / offspring survival late / lactation index / lactation index + developmental / offspring survival late / [other] / [other] + …
[16] = group: offspring, systemic / in life observation / clinical signs / no milk in stomach
[17] = group: parental, systemic / in life observation / body weight / body weight gain + systemic / in life observation / clinical signs / hyperreflexitivity
[18] = group: reproductive, reproductive / offspring survival early / litter size / litter size
[19] = group: cholinesterase, cholinesterase / cholinesterase / cholinesterase / plasma cholinesterase (che) + cholinesterase / cholinesterase / cholinesterase / …
[20] = group: systemic, systemic / in life observation / body weight / body weight + systemic / in life observation / body weight / body weight gain + systemic / in…
[21] = group: cholinesterase, cholinesterase / cholinesterase / cholinesterase / brain cholinesterase (che) + cholinesterase / cholinesterase / cholinesterase / …
[22] = group: systemic, systemic / pathology microscopic / intestine small / hyperplasia + systemic / in life observation / mortality / mortality + systemic / …
[23] = group: systemic, systemic / pathology microscopic / intestine small / hyperplasia + systemic / pathology microscopic / bone marrow / hyperplasia
[24] = group: cholinesterase, cholinesterase / cholinesterase / cholinesterase / plasma cholinesterase (che)
[25] = group: cholinesterase, cholinesterase / cholinesterase / cholinesterase / plasma cholinesterase (che) + cholinesterase / cholinesterase / cholinesterase / brain …
[26] = group: systemic, systemic / pathology microscopic / pancreas / atrophy
[27] = group: systemic, systemic / pathology microscopic / pancreas / atrophy + systemic / pathology microscopic / pancreas / adenoma + systemic / in life …
[28] = group: cholinesterase, cholinesterase / cholinesterase / cholinesterase / erythrocyte cholinesterase (che) + cholinesterase / cholinesterase / cholinesterase / …
[29] = group: reproductive, reproductive / reproductive performance / estrous cycle / abnormal
[30] = group: systemic, systemic / organ weight / liver / absolute + systemic / organ weight / liver / relative to brain weight
[31] = group: systemic, systemic / organ weight / liver / absolute + systemic / organ weight / liver / relative to brain weight + systemic / clinical chemistry / …
[32] = systemic / pathology microscopic / kidney / cytoplasmic alteration + systemic / pathology microscopic / kidney / dilatation + systemic / …
[33] = systemic / pathology microscopic / kidney / regeneration + systemic / urinalysis / aspartate aminotransferase (ast/sgot) / aspartate …
[34] = systemic / pathology microscopic / kidney / dilatation + systemic / pathology microscopic / kidney / hyaline droplet + systemic / pathology …
[35] = systemic / pathology microscopic / kidney / regeneration + systemic / clinical chemistry / thyroxine (t4) / thyroxine (t4), free + systemic…
[36] = systemic / clinical chemistry / alanine aminotransferase (alt/sgpt) / alanine aminotransferase (alt/sgpt) + systemic / clinical chemistry / …
[37] = systemic / in life observation / body weight / body weight + systemic / organ weight / liver / absolute
[38] = group: offspring, systemic / in life observation / body weight / offspring (pup) weight + systemic / in life observation / body weight / offspring (pup) …
[39] = group: parental, systemic / in life observation / body weight / body weight + systemic / in life observation / mortality / mortality + systemic / in life …
[40] = group: reproductive, reproductive / offspring survival early / birth index / live birth index
[41] = systemic / clinical chemistry / [other] / [other] + systemic / clinical chemistry / thyroxine (t4) / thyroxine (t4), total + systemic / …
[42] = systemic / clinical chemistry / [other] / [other] + systemic / organ weight / liver / relative to body weight + systemic / clinical …

## CCNP(=S)(OC)O/C(C)=C/C(=O)OC(C)C (stereo not drawn) [Propetamphos]
[1]; [13]
  LEL: 2.1 mg/kg/day
  LOAEL: 2.1 mg/kg/day
[1]; [14]
  NEL: 0.3 mg/kg/day
  NOAEL: 0.3 mg/kg/day
[1]; [15]
  LOAEL: 8 mg/kg/day
  NOAEL: 3 mg/kg/day
[1]; [16]
  LEL: 0.5 mg/kg/day
  NEL: < 0.5 mg/kg/day
[1]; group: parental, systemic / in life observation / body weight / body weight gain
  LEL: 3.7 mg/kg/day
[1]; [17]
  LOAEL: 7.1 mg/kg/day
  NOAEL: 2.8 mg/kg/day
[1]; group: parental, systemic / in life observation / body weight / body weight gain + systemic / in life observation / clinical signs / hyperreflexitivity + …
  NEL: 0.5 mg/kg/day
[1]; [18]
  LEL: 0.5 mg/kg/day
  NEL: < 0.5 mg/kg/day
[1]; group: reproductive, reproductive / reproductive performance / implantations / implantations + reproductive / reproductive performance / mating / mating
  NOAEL: 3.7 mg/kg/day
[1]; group: reproductive, reproductive / reproductive performance / implantations / implantations + reproductive / reproductive performance / mating / mating + …
  LOAEL: 11.3 mg/kg/day
[2]; [19]
  LEL: 1 mg/kg/day
  LOAEL: 1 mg/kg/day
  NEL: < 1 mg/kg/day
  NOAEL: < 1 mg/kg/day
[2]; group: systemic, systemic / in life observation / body weight / body weight + systemic / in life observation / body weight / body weight gain
  LOAEL: 59 mg/kg/day
[2]; [20]
  LEL: 59 mg/kg/day
  NEL: 28 mg/kg/day
  NOAEL: 28 mg/kg/day
[3]
  LEL: 0.083 mg/kg/day
  LOAEL: 0.165 mg/kg/day
  NEL: < 0.083 mg/kg/day
  NOAEL: 0.083 mg/kg/day
[4]; [21]
  LEL: 1 mg/kg/day
  LOAEL: 1 mg/kg/day
  NEL: 0.05 mg/kg/day
  NOAEL: 0.05 mg/kg/day
[4]; [22]
  NEL: 1 mg/kg/day
  NOAEL: 1 mg/kg/day
[4]; [23]
  LEL: 6 mg/kg/day
  LOAEL: 6 mg/kg/day
[5]; [24]
  LEL: 0.632 mg/kg/day
  LOAEL: 0.632 mg/kg/day
[5]; [25]
  NEL: 0.376 mg/kg/day
  NOAEL: 0.376 mg/kg/day
[5]; [26]
  LEL: 0.689 mg/kg/day
  LOAEL: 0.689 mg/kg/day
[5]; [27]
  NEL: 0.412 mg/kg/day
  NOAEL: 0.412 mg/kg/day
[6]; [28]
  LEL: 0.59 mg/kg/day
  LOAEL: 0.59 mg/kg/day
  NEL: 0.13 mg/kg/day
  NOAEL: 0.13 mg/kg/day
[6]; [29]
  LEL: 3.39 mg/kg/day
  LOAEL: > 3.39 mg/kg/day
  NEL: 0.67 mg/kg/day
  NOAEL: ≥ 3.39 mg/kg/day
[6]; [30]
  LEL: 0.59 mg/kg/day
  LOAEL: 0.59 mg/kg/day
[6]; [31]
  NEL: 0.13 mg/kg/day
  NOAEL: 0.13 mg/kg/day

## Clc1cc(Cl)c(Cl)cc1Cl [1,2,4,5-Tetrachlorobenzene]
[7]; [32]
  LOAEL: 7.1 mg/kg/day
  NOAEL: 2.1 mg/kg/day
[7]; [33]
  LEL: 2.1 mg/kg/day
  NEL: < 2.1 mg/kg/day
[8]; [34]
  LOAEL: 7.1 mg/kg/day
  NOAEL: 2.1 mg/kg/day
[8]; [35]
  LEL: 2.1 mg/kg/day
  NEL: < 2.1 mg/kg/day
[9]; [36]
  LOAEL: > 450 mg/kg/day
  NOAEL: ≥ 450 mg/kg/day
[9]; [37]
  LEL: 4 mg/kg/day
  NEL: < 4 mg/kg/day
[10]; [38]
  LEL: 100 mg/kg/day
  LOAEL: > 250 mg/kg/day
  NEL: 40 mg/kg/day
  NOAEL: ≥ 250 mg/kg/day
[10]; group: parental, systemic / in life observation / body weight / body weight + systemic / in life observation / mortality / mortality
  NEL: 40 mg/kg/day
[10]; [39]
  LOAEL: > 250 mg/kg/day
  NOAEL: ≥ 250 mg/kg/day
[10]; group: parental, systemic / in life observation / body weight / body weight + systemic / organ weight / testes / absolute
  LEL: 100 mg/kg/day
[10]; [40]
  LEL: 100 mg/kg/day
  LOAEL: > 250 mg/kg/day
  NEL: 40 mg/kg/day
  NOAEL: ≥ 250 mg/kg/day

## Clc1cc2oc3c(Cl)c(Cl)c(Cl)cc3c2cc1Cl [2,3,4,7,8-Pentachlorodibenzofuran]
[11]; [41]
  LOAEL: > 0.0002 mg/kg/day
  NOAEL: ≥ 0.0002 mg/kg/day
[11]; [42]
  LEL: 6e-06 mg/kg/day
  NEL: < 6e-06 mg/kg/day

## CC(=O)O.CC(=O)O.NC(=NCCCCCCN=C(N)/N=C(\N)Nc1ccc(Cl)cc1)/N=C(\N)Nc1ccc(Cl)cc1 [Chlorhexidine diacetate]
[12]
  LEL: 250 mg/kg/day
  LOAEL: 250 mg/kg/day
  NEL: < 250 mg/kg/day
  NOAEL: < 250 mg/kg/day

Reference: EPA's ToxRefDB 2
